{"source": "patent US20220154296A1", "about": "“USE OF ANTI-PD-1 ANTIBODY IN PREPARATION OF MEDICAMENT FOR TREATING SOLID TUMORS” (Shanghai Junshi Biosciences Co., Ltd., priority 2019, published 2022)", "key": {"advanced ESCC": {"tested_on": "advanced ESCC", "assay": "Phase Ib/II clinical trial, anti-tumor activity study (RECIST v1.1), with biomarker subgroups", "type": "in vivo, human", "experimental": "From Mar. 9, 2017 to Aug.\nPD-L1 was detected in formalin-fixed paraffin-embedded (FFPE) tumor tissue samples by immunohistochemistry (IHC) methods and verified on the VENTANA Benchmark Ultra system at the clinical center laboratory (Q2 laboratory, Beijing). The immunohistochemistry detection of PD-L1 was performed using the Spring Bioscience (Roche) rabbit anti-human PD-L1 monoclonal antibody (clone SP142, Cat No: M4422). The expression of PD-L1 on tumor cells (TCs) and tumor infiltrating immune cells (ICs) was assessed by certified pathologists using stained tumor tissue. The PD-L1 positive status is defined as the presence of tumor cells with membrane staining intensity ≥1% or the presence of PD-LI staining intensity of tumor infiltrating immune cells covering ≥1% of related, continuous pen-cancerous stromal tumor area in the tumor occupied by tumor cells.\nDuring the clinical trial described in Example 1, tumor biopsy samples from 50 subjects were subjected to whole exome sequencing (WES). TMB was determined by analyzing somatic mutations within coding regions of the human genome."}, "CT-26 cells": {"tested_on": "CT-26 cells", "assay": "Inhibitory effect on tumor growth in CT-26 cell-transplanted B-hPD-1 mice", "type": "in vivo", "experimental": "CT-26 cells were seeded subcutaneously on the right side of hPD-1 humanized female mice at a concentration of 2.5×10^5 cells/0.1 mL, and the mice were randomly grouped by tumor volume when tumors grew to about 93 mm^3 with 7 mice per group, for a total of 4 groups:\nG1: Anti-KLH hIgG4 (1 mg/kg) negative control group;\nG3: palbociclib (100 mg/kg);\nThe experiment was ended 11 days after the first administration. Tumor volume and body weight of mice were measured and recorded twice a week. At the end of the experiment, animals were euthanized and tumor growth inhibition (TGITv%) was calculated."}, "[1]": {"details": "59 patients, investigator-assessed RECIST v1.1"}, "[2]": {"details": "patients with 11q13 amplification (n=24)"}, "[3]": {"details": "patients with low or no PD-L1 expression (5% cutoff)"}, "[4]": {"details": "patients without 11q13 amplification (n=26)"}, "[5]": {"details": "subjects with more than 5% PD-L1 expression"}, "[6]": {"details": "without vs. with 11q13 amplification"}}, "data": [{"substance": "toripalimab: humanized IgG4 anti-PD-1 mAb comprising light and heavy chain amino acid sequences set forth in SEQ ID NOs: 9 and 10 (WO2014206107)", "values": [{"measurement": "ORR confirmed", "setting": "advanced ESCC; 59 patients", "value": 15.3, "unit": "%"}, {"measurement": "DCR", "setting": "advanced ESCC; 59 patients, RECIST v1.1", "value": 47.5, "unit": "%"}, {"measurement": "Optimal response rate", "setting": "advanced ESCC; 59 patients, RECIST v1.1", "value": 18.6, "unit": "%"}, {"measurement": "CR", "setting": "advanced ESCC; [1]", "value": 1, "unit": "case"}, {"measurement": "PR (including 2 cases of undiagnosed PR)", "setting": "advanced ESCC; [1]", "value": 10, "unit": "cases"}, {"measurement": "Subjects who had died", "setting": "advanced ESCC; 59 subjects, as of Dec. 31, 2018", "value": 67.8, "unit": "%"}, {"measurement": "Median PFS", "setting": "advanced ESCC; PD-L1 negative subjects", "value": 2.0, "unit": "months"}, {"measurement": "ORR", "setting": "advanced ESCC; PD-L1 negative subjects", "value": 18.4, "unit": "%"}, {"measurement": "OS", "setting": "advanced ESCC; PD-L1 negative subjects", "value": 6.9, "unit": "months"}, {"measurement": "OS", "setting": "advanced ESCC; PD-L1 positive patients", "value": 6.7, "unit": "months"}, {"measurement": "ORR", "setting": "advanced ESCC; PD-L1 positive patients (≥1% TC or IC, SP142 IHC)", "value": 15.8, "unit": "%"}, {"measurement": "Median PFS", "setting": "advanced ESCC; PD-L1 positive subjects", "value": 3.4, "unit": "months"}, {"measurement": "OR", "setting": "advanced ESCC; TMB equal to or greater than 12 mutations/Mb (n=11)", "value": 18.2, "unit": "%"}, {"measurement": "OR", "setting": "advanced ESCC; TMB less than 12 mutations/Mb (n=36)", "value": 19.4, "unit": "%"}, {"measurement": "Optimal response (%)", "setting": "advanced ESCC; Total, 59 people", "value": 18.6, "unit": "%"}, {"measurement": "Mean response time", "setting": "advanced ESCC; all patients", "value": 1.8, "unit": "months"}, {"measurement": "Median OS", "setting": "advanced ESCC; all patients", "value": 6.9, "unit": "months"}, {"measurement": "Median PFS", "setting": "advanced ESCC; all patients", "value": 2.1, "unit": "months"}, {"measurement": "Median duration of response", "setting": "advanced ESCC; all patients", "value": 11.2, "unit": "months"}, {"measurement": "Subjects with arbitrary size reduction in target lesions relative to baseline", "setting": "advanced ESCC; all patients", "value": 42.4, "unit": "%"}, {"measurement": "OS", "setting": "advanced ESCC; high TMB (≥12)", "value": 11.5, "unit": "months"}, {"measurement": "PFS", "setting": "advanced ESCC; high TMB (≥12)", "value": 4.0, "unit": "months"}, {"measurement": "OS", "setting": "advanced ESCC; low TMB (<12)", "value": 6.7, "unit": "months"}, {"measurement": "PFS", "setting": "advanced ESCC; low TMB (<12)", "value": 1.9, "unit": "months"}, {"measurement": "Median OS", "setting": "advanced ESCC; patients with 11q13 amplification", "value": 5.6, "unit": "months"}, {"measurement": "Objective response rate", "setting": "advanced ESCC; [2]", "value": 42}, {"measurement": "PFS", "setting": "advanced ESCC; [2]", "value": 1.0, "unit": "month"}, {"measurement": "DCR", "setting": "advanced ESCC; [3]", "value": 42.3, "unit": "%"}, {"measurement": "ORR", "setting": "advanced ESCC; [3]", "value": 15.4, "unit": "%"}, {"measurement": "Median OS", "setting": "advanced ESCC; patients without 11q13 amplification", "value": 11.5, "unit": "months"}, {"measurement": "Objective response rate", "setting": "advanced ESCC; [4]", "value": 30.8, "unit": "%"}, {"measurement": "PFS", "setting": "advanced ESCC; [4]", "value": 3.7, "unit": "months"}, {"measurement": "Optimal response (%)", "setting": "advanced ESCC; subgroup Age >60, 29 people", "value": 20.7, "unit": "%"}, {"measurement": "Optimal response (%)", "setting": "advanced ESCC; subgroup Age ≤60, 30 people", "value": 16.7, "unit": "%"}, {"measurement": "Optimal response (%)", "setting": "advanced ESCC; subgroup ECOG 0, 5 people", "value": 40.0, "unit": "%"}, {"measurement": "Optimal response (%)", "setting": "advanced ESCC; subgroup ECOG 1, 54 people", "value": 16.7, "unit": "%"}, {"measurement": "Optimal response (%)", "setting": "advanced ESCC; subgroup LDH >ULN, 14 people", "value": 28.6, "unit": "%"}, {"measurement": "Optimal response (%)", "setting": "advanced ESCC; subgroup LDH Normal, 45 people", "value": 15.6, "unit": "%"}, {"measurement": "Optimal response (%)", "setting": "advanced ESCC; subgroup Liver metastasis No, 43 people", "value": 18.6, "unit": "%"}, {"measurement": "Optimal response (%)", "setting": "advanced ESCC; subgroup Liver metastasis Yes, 16 people", "value": 18.8, "unit": "%"}, {"measurement": "Optimal response (%)", "setting": "advanced ESCC; subgroup Prior treatment 1, 13 people", "value": 15.4, "unit": "%"}, {"measurement": "Optimal response (%)", "setting": "advanced ESCC; subgroup Prior treatment 2, 19 people", "value": 15.8, "unit": "%"}, {"measurement": "Optimal response (%)", "setting": "advanced ESCC; subgroup Prior treatment 3+, 27 people", "value": 22.2, "unit": "%"}, {"measurement": "Optimal response (%)", "setting": "advanced ESCC; subgroup Sex Female, 7 people", "value": 14.3, "unit": "%"}, {"measurement": "Optimal response (%)", "setting": "advanced ESCC; subgroup Sex Male, 52 people", "value": 19.2, "unit": "%"}, {"measurement": "Optimal response (%)", "setting": "advanced ESCC; subgroup Tumor volume (baseline target lesion) >100 mm, 13 people", "value": 15.4, "unit": "%"}, {"measurement": "Optimal response (%)", "setting": "advanced ESCC; subgroup Tumor volume (baseline target lesion) ≤100 mm, 46 people", "value": 19.6, "unit": "%"}, {"measurement": "DCR", "setting": "advanced ESCC; [5]", "value": 100, "unit": "%"}, {"measurement": "ORR", "setting": "advanced ESCC; [5]", "value": 40, "unit": "%"}, {"measurement": "HR for OS", "setting": "advanced ESCC; [6]", "value": 0.60}, {"measurement": "HR for PFS", "setting": "advanced ESCC; [6]", "value": 0.47}, {"measurement": "TGI (%)", "setting": "CT-26 cells; 11 days after the first administration, toripalimab 1 mg/kg i.p., palbociclib 100 mg/kg orally", "value": 8.0, "unit": "%"}, {"measurement": "Tumor volume 11 days after the first administration", "setting": "CT-26 cells; mean ± standard error, toripalimab 1 mg/kg i.p. twice a week, palbociclib 100 mg/kg orally once a day, 7 mice per group", "value": "2519 ± 320", "unit": "mm^3"}]}]}
